# Measurements published in patent publication US20060239926A1, “Specific high-relaxivity compounds” (GUERBET, priority 2003, published 2006).
# *: point of attachment. Cbz = O=C(OCc1ccccc1)*; NHOH = ON*
# Tests used:
# [1] = target: FBP; settings: cited from earlier work; for affinity for FBP relative to folic acid: order: pemetrexed>CB3717>IAHQ>2-NH2-ZD1694
# [2] = Molar relaxivity (r1, r2) measurement; type: physicochemical; settings: 60 MHz; in water; 2 Gd per mol of product; uncertainty +/−5%
# Text: Since BIO-FOLATE.I has 2 Gd per mol of product, the molar relaxivity values are summarized in this table (uncertainty +/−5%).
# [3] = target: T1, Folate Binding Protein (FBP) (Bos taurus, UniProt P02702); assay: Study of affinity with Folate Binding Protein by means of BIAcore 3000
# T1 construct: purchased Sigma F-0504
# Method: (§1) The molar BIO-FOLATE.I relaxivity in water is very good, in particular at 60 MHz: r1=53 mM^−1·s^−1. It is recalled that the relaxivity obtained with specific products of the prior art of the type such as dendrimer associated with folates is r1=9.32 mM^−1s^−1 per Gd (Investigative Radiology, January 2000, vol 35, p 56). • Study of MRI imaging between 30 minutes and 24 hours the contrast at the level of the tumour is very clear, in particular 1 to 2 hours after injection. In addition, Gd assays by ICP-MS; were carried out on the reference organs at the end of the assays using the imager. […] The tumour/muscle ratio is of the order of 4 to 10 times that observed with previously used contrast products. Experimental Conditions for the BIACORE 3000 Studies on P860 and BIO-FOLATE.I (Study of Affinity Between P860, BIO-FOLATE.I, and Folate Binding Protein by Means of BIAcore 3000).
# PGM buffer: 100 mM KH2PO4, pH 7, 10% glycerol and 4 mM β-mercaptoethanol
# The FBP was immobilized at 1 mg/ml in PGM buffer according to the protocols recommended by BIAcore for coupling amines. Next, the remaining active carboxylated groups are saturated with 1M ethanolamine, pH=8.
# The folate binding was followed at four different concentrations (125, 250, 500 and 1000 μM). The association and the dissociation were studied with a flow rate at 30 μl/min. […]
# [4] = system: KB cells; assay: In vitro study of binding/internalization in KB cells; type: cell-based, Human; settings: 37° C., with or without excess free folic acid; ICP-MS assays
# [5] = system: KB tumours; assay: Biodistribution study on nude mice bearing KB tumours
# Text: c. Biodistribution study on nude mice bearing KB tumours: this biodistribution study comprised competition between P860 and free-folic acid. A group of animals received normal food and a co-injection of folic acid with the product tested and another was given a folate-depleted diet through a single injection of the product tested.
# Conditions for Biodistribution Study on Nude Mice Part 1: • Induction of subcutaneous tumours in nude female mice and […] of human KB cells. • Separation of the animals into 2 groups receiving a diet with or without folate (10 days). • The group with folate receives an additional injection of folic acid (25 μmol/kg IV) 5 minutes before the injections of contrast product (CP). • IV injection of CP then removal of organ samples (muscle, tumour, liver, kidneys) and plasma samples. Part 2: Assays by ICP-AES • Gd assay (P860, BIO-FOLATE.I, Dotarem): liver, kidney. Part 3: Bioanalysis: Assay by ICP-MS • Gd assay (P860, BIO-FOLATE.I, Dotarem): tumour, muscle, plasma
# Supplementing with Folate • 5.5 mM folic acid diluted in PBS and then injected at a dose of 25 μmol/kg (4.54 ml/kg).
# Folic acid and CP: IV administration (caudal vein).
# The folic acid was injected 5 minutes before the injection of CP.
# Results: Tumour Distribution of the PC—Gd
# [6] = system: tumours; assay: Study of MRI imaging between 30 minutes and 24 hours with Gd assays by ICP-MS; type: in vivo
# Method: as §1
# [7] = target: T2, human MMP-1 (Homo sapiens, UniProt P03956); assay: In vitro MMP-inhibiting activity (fluorimetry), MMP-1; type: biochemical; settings: for CONCENTRATION OF PEPTIDE (with significant inhibitory effect): tested at 10^−5, 10^−7 and 10^−9 M with respect to peptides
# T2 sequence (P03956 100-469): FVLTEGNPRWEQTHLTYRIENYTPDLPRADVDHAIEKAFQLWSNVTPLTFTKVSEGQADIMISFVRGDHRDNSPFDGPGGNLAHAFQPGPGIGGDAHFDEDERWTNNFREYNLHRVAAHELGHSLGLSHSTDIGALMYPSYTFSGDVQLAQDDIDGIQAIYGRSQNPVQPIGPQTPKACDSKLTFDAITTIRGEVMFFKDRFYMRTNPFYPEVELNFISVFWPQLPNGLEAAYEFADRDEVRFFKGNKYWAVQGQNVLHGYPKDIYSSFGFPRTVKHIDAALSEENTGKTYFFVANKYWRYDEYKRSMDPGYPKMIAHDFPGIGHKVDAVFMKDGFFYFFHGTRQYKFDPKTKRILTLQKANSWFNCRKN
# Method: The inventors assayed the in vitro activity of the P947 and P967 gadolinium-chelate contrast products functionalized with matrix metalloproteases inhibitors (MMPs), on human MMP-1 and MMP-3. As regards the affinity of the biovector component, on the receptor, the controls were two peptides:
# More precisely, the in vitro MMP-inhibiting activity was evaluated in the following way: • 1. Incubation of the test product in the presence of the MMP enzyme, at 37° C., for a defined period of time, and then measurement of the fluorescence of the medium (t=0). • 2. Induction of the enzyme reaction by addition of the substrate to (which becomes fluorescent when it is cleaved by the enzyme), and then incubation at 37° C. for 40 min. A second measurement of fluorescence is then taken (t=40). • 3. The activity of the MMP enzyme is determined by subtraction of the signal measured by fluorimetry: (t=40)-(t=0). • 4. The results are expressed as percentage inhibition of the activity of the control enzyme. • 5. The standard inhibitory product is TIMP-1.
# The products were tested in duplicate, at 10^−5, 10^−7 and 10^−9 M with respect to peptides. Those which contain no peptides were treated in a manner similar to the corresponding functionalized contrast products.
# [8] = target: T2, human MMP-1; settings: value of the peptide component, not of the Gd conjugate, read-out: IC50 OF THE PEPTIDE (LITERATURE); cited from earlier work
# [9] = target: αvβ5 (Homo sapiens, UniProt P06756+P18084); settings: cited from earlier work
# [10] = target: α5β1 (Homo sapiens, UniProt P05556+P08648); settings: cited from earlier work
# Sequence of α5β1 (P08648 42-894 limits assumed): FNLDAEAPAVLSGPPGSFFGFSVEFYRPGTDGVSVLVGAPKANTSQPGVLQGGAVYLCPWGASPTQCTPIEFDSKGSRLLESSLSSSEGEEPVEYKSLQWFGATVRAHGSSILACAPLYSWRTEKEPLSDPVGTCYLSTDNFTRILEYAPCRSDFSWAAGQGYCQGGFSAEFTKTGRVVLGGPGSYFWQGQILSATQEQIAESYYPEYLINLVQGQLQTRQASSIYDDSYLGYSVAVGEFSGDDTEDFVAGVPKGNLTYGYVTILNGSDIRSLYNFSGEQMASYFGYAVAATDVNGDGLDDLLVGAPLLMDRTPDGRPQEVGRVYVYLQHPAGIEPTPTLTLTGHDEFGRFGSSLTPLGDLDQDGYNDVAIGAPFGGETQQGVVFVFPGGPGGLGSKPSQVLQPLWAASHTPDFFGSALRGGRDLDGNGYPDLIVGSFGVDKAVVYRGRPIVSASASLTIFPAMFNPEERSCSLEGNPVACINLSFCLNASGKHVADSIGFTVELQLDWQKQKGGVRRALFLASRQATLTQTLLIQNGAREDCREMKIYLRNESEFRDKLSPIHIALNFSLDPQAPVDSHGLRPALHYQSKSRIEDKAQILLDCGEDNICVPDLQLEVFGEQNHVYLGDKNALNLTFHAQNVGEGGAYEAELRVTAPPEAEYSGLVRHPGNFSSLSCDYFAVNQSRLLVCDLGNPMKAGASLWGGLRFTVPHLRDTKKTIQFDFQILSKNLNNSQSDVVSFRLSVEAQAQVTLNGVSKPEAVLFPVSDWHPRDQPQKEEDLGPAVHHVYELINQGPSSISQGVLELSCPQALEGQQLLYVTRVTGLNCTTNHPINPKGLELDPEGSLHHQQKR
# Sequence of α5β1 (P08648 895-1049 partner limits assumed): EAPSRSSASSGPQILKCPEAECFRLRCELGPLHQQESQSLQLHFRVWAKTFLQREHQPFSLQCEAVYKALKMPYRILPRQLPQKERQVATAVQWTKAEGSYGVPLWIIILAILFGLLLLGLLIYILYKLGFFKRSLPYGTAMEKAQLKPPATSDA
# Sequence of α5β1 (P05556 21-798): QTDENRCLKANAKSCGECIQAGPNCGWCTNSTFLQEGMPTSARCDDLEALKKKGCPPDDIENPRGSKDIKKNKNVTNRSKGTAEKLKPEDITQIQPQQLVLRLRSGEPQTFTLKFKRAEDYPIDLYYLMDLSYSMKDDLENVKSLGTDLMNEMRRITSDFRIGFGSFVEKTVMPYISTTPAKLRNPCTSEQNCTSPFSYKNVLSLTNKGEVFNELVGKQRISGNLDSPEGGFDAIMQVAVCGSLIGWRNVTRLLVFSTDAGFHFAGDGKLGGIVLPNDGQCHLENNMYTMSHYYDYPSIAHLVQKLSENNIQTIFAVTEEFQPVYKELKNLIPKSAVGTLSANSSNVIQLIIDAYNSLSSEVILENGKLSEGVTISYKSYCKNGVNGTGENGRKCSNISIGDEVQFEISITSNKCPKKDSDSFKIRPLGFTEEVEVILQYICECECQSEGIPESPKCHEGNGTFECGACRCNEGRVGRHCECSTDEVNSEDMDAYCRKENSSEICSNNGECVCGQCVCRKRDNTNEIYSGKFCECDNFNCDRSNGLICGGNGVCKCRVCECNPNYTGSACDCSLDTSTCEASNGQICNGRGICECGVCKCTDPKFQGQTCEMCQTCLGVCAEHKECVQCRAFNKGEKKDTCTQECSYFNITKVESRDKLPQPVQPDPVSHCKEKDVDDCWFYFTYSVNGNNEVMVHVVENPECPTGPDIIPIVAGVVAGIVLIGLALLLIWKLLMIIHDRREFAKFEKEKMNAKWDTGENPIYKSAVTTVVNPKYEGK
# T1 sequence (P02702 20-234): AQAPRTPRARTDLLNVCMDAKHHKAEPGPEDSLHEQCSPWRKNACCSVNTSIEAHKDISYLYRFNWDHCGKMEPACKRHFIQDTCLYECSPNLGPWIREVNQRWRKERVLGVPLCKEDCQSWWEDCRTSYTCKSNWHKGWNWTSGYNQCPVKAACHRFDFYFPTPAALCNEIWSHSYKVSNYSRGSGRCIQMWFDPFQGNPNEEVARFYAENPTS
# Sequence of αvβ5 (P06756 31-889 limits assumed): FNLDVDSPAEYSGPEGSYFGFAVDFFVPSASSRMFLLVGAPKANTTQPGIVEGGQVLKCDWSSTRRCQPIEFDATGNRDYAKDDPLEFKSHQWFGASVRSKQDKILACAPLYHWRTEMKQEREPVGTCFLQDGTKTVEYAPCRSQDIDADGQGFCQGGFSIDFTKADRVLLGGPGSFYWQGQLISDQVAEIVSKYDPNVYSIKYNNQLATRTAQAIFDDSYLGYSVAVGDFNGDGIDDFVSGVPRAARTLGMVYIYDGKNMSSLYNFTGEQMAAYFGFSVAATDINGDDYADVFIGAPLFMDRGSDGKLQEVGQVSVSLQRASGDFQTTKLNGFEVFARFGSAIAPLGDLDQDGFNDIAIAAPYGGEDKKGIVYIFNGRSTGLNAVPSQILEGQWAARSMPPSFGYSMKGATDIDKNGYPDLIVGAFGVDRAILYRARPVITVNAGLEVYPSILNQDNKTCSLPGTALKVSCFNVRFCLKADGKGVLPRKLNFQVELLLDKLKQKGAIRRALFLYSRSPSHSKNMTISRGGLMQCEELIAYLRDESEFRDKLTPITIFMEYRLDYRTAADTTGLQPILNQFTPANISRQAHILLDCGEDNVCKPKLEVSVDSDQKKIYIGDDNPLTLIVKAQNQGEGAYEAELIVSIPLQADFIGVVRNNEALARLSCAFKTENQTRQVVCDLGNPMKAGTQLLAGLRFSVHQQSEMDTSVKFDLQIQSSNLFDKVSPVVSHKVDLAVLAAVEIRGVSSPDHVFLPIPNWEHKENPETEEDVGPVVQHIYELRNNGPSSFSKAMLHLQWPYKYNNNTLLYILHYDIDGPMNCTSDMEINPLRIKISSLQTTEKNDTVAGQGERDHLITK
# Sequence of αvβ5 (P06756 891-1048 partner limits assumed): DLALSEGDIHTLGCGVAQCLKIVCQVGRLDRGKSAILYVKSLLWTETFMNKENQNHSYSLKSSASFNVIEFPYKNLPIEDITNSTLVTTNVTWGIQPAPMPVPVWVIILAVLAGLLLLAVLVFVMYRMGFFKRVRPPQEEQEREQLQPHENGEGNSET
# Sequence of αvβ5 (P18084 24-799): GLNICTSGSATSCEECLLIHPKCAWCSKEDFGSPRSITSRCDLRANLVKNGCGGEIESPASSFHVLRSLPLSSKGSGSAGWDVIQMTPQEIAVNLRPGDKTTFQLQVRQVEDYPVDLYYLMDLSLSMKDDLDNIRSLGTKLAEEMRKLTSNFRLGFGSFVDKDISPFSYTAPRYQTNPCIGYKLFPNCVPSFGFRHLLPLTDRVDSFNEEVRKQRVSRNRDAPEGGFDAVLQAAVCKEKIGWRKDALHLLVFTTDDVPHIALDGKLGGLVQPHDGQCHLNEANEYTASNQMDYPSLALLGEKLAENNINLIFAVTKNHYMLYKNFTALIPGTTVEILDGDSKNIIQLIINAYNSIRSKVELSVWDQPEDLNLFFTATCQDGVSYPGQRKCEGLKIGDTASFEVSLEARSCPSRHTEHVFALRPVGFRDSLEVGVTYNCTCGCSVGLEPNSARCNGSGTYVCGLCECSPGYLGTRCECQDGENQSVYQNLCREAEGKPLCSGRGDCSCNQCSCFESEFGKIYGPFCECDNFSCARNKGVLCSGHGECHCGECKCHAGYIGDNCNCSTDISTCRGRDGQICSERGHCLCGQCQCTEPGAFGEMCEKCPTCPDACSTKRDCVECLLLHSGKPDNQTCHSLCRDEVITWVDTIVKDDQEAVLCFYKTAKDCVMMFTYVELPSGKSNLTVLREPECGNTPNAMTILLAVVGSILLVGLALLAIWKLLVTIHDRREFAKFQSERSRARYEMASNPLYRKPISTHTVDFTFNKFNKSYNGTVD
compound,measurement,setting,value
NC1=NC2=C(S[C@H](CCc3ccc(C(=O)N[C@@H](CCC(=O)O)C(=O)O)s3)CN2)C(O)N1 (some centres unmarked),Kd,[1],3.2 pM
Nc1nc2ncc(CNc3ccc(C(=O)N[C@@H](CCC(=O)NCCCOCCOCCOCCCNc4c(NCCOCCOCCNc5nc(Nc6ccc(CCC(C(=O)O)N7CCN(C(CCC(=O)NCC(=O)Nc8c(Br)c(C(=O)N(CC(O)C(O)C(O)C(O)CO)CC(O)C(O)C(O)C(O)CO)c(Br)c(C(=O)N(CC(O)C(O)C(O)C(O)CO)CC(O)C(O)C(O)C(O)CO)c8Br)C(=O)O)CCN(C(CCC(=O)NCC(=O)Nc8c(Br)c(C(=O)N(CC(O)C(O)C(O)C(O)CO)CC(O)C(O)C(O)C(O)CO)c(Br)c(C(=O)N(CC(O)C(O)C(O)C(O)CO)CC(O)C(O)C(O)C(O)CO)c8Br)C(=O)O)CCN(C(CCC(=O)NCC(=O)Nc8c(Br)c(C(=O)N(CC(O)C(O)C(O)C(O)CO)CC(O)C(O)C(O)C(O)CO)c(Br)c(C(=O)N(CC(O)C(O)C(O)C(O)CO)CC(O)C(O)C(O)C(O)CO)c8Br)C(=O)O)CC7)cc6)nc(Nc6ccc(CCC(C(=O)O)N7CCN(C(CCC(=O)NCC(=O)Nc8c(Br)c(C(=O)N(CC(O)C(O)C(O)C(O)CO)CC(O)C(O)C(O)C(O)CO)c(Br)c(C(=O)N(CC(O)C(O)C(O)C(O)CO)CC(O)C(O)C(O)C(O)CO)c8Br)C(=O)O)CCN(C(CCC(=O)NCC(=O)Nc8c(Br)c(C(=O)N(CC(O)C(O)C(O)C(O)CO)CC(O)C(O)C(O)C(O)CO)c(Br)c(C(=O)N(CC(O)C(O)C(O)C(O)CO)CC(O)C(O)C(O)C(O)CO)c8Br)C(=O)O)CCN(C(CCC(=O)NCC(=O)Nc8c(Br)c(C(=O)N(CC(O)C(O)C(O)C(O)CO)CC(O)C(O)C(O)C(O)CO)c(Br)c(C(=O)N(CC(O)C(O)C(O)C(O)CO)CC(O)C(O)C(O)C(O)CO)c8Br)C(=O)O)CC7)cc6)n5)c(=O)c4=O)C(=O)O)cc3)nc2c(=O)[nH]1 (some centres unmarked) [BIO-FOLATE.I],molar r1,[2],53 mM⁻¹ s⁻¹
same,binding to FBP (folate binding protein) in vitro,[3],binds specifically to FBP
same,amount of product specifically bound and internalized in KB cells,[4],Correct capture
same,accumulation in the tumours,[5]; 15 μmol/kg,excellent accumulation
same,decrease of product in the tumour by folic acid,"[5]; competition with free folate, times 4 and 24 h",2 times less
same,injected dose found in the tumour,"[5]; female, nude, mouse, in vivo, iv",5-8%
same,injected theoretical dose found in the tumours,"[5]; folate-free diet, at 4 h",14%
same,injected theoretical dose found in the tumours,"[5]; folate-free diet, at 72 h",7%
same,effect of prior injection of free folic acid on tumour Gd,[5]; free folic at 25 μmol/kg before the product,decrease the Gd concentrations assayed in the tumours
same,activity in vivo,"[5]; in vivo studies (biodistribution, MRI)",P860 is inactive in vivo unlike BIO-FOLATE.I and BIO-FOLATE.II
same,contrast at the level of the tumour (MRI),"[6]; between 30 minutes and 24 hours, in particular 1 to 2 hours after injection",very clear
same,"heightening of the tumours, duration",[6]; versus products of the prior art,longer lasting than with products of the prior art
C#CCN(Cc1ccc2nc(N)[nH]c(=O)c2c1)c1ccc(C(=O)N[C@@H](CCC(=O)O)C(=O)O)cc1 [CB3717],affinity for FBP relative to folic acid,[1],affinity greater than folic acid
CNC[C@H](O)[C@@H](O)[C@H](O)[C@H](O)CO.O=C([O-])CN1CCN(CC(=O)[O-])CCN(CC(=O)O)CCN(CC(=O)[O-])CC1.[Gd+3] [Dotarem],injected theoretical dose found in the tumours,"[5]; mouse, in vivo",1-2%
same,intratumour amounts corrected for g of tissue,"[5]; mouse, in vivo",negligable beyond 4 h
CN(Cc1ccc2nc(N)[nH]c(=O)c2c1)c1ccc(C(=O)NC(CCC(=O)O)C(=O)O)s1 (centres unmarked) [Example 2-NH2-ZD1694],affinity for FBP relative to folic acid,[1],affinity greater than folic acid
CC(C)C[C@@H](NC(=O)[C@@H]1CCCN1C(=O)CNC(=O)c1ccc(NC(=S)Nc2ccc(CCC(C(=O)O)N3CCN(CC(=O)O)CCN(CC(=O)O)CCN(CC(=O)O)CC3)cc2)cc1)C(=O)N[C@@H](C)C(=O)NO (some centres unmarked) [Example P947],SIGNIFICANT INHIBITORY EFFECT,[7]; concentration of peptide 10^−5M,86%
same,CONCENTRATION OF PEPTIDE (with significant inhibitory effect),[7],10^−5M
same,IC50,[8],1 µM
Nc1nc2ccc(NCc3ccc(C(=O)N[C@@H](CCC(=O)O)C(=O)O)cc3)cc2c(=O)[nH]1 [IAHQ],affinity for FBP relative to folic acid,[1],affinity greater than folic acid
Nc1nc(O)c2c(CCc3ccc(C(=O)N[C@@H](CCC(=O)O)C(=O)O)cc3)c[nH]c2n1 [pemetrexed],affinity for FBP relative to folic acid,[1],affinity greater than folic acid
Cbz-Pro-Leu-Gly-{NHOH} [PEPTIDE A],CONCENTRATION OF PEPTIDE (with significant inhibitory effect),[7],>10^−5M
same,IC50,[8],40 µM
cyclo(ARGD-Mamb) [XJ735],blocking of αvβ5,[9],does not block
same,blocking of α5β1,[10],does not block
